These results are taken from US4473583A, “Compositions containing certain derivatives of 4-phenyl-4-oxobuten-2-oic acid and methods of treatment using them” (Roussel UCLAF, priority 1981, dated 1984).

The subject of data set [1] is total acidity of the gastric secretions. Nature of the data set: anti-gastric secretion activity (pylorus ligation, Shay technique). The data set is classed as in vivo. As to conditions: male rats, pylorus ligated, 10 mg/kg intraduodenally, 3 hours. The protocol:
(1) Determination of the anti-gastric secretion activity
The technique used is described by H. SHAY et al. in Gastroenterology 5, 43, 1945.
Male rats were used having a weight of about 200 g (10 animals per lot), and were kept without food for 48 hours but allowed a 8% gluclose solution ad libitum. After the rats were slightly anesthetized with ether, the pylorus of each was ligated. After the end of the operation, the product to be tested in different doses or, in the case of the control animals a solution of 0.5% carboxymethyl cellulose, was administered intraduodenally, after which the abdominal incision sutured.
Three hours later, the animals were sacrified and their stomachs removed after ligating the esophagus. The gastric juice was removed and centrifuged. The volume of gastric juice obtained was then determined and the total acidity of the gastric juice was obtained by titrating a 100 μl sample of gastric juice to a pH of 7 by means of 1/10 N sodium hydroxide solution.
The percentages of the variation of the total acidity of the gastric secretions, between test animals and control animals were calculated and are set forth in the table appearing below.

The subject of a further data set is stomach ulcers. In words: anti-ulcer activity, stress ulcer (stress and cold). The data set is classed as in vivo. The conditions noted are these: female rats, stress and cold (8° C., two hours), 10 mg/kg through an esophageal tube, 2 hours before stress. As to the method:
(2) Determination of the anti-ulcer activity Stress Ulcer
The technique consists of inducing stomach ulcers by stress in rats (stress and cold). The technique used is described by E. C. SENAY and R. J. LEVINE, Proc. Soc. Exp. Biol. 124, 1221 (1967).
Female rats of 150 g (5 animals per lot) were used which has been fasting for 48 hours with water ad libitum and glucose solution for 8 hours. Through an esophageal tube, the animals received a test compound, or a solution of 0.5% carboxy methyl cellulose in the case of the control animals. Two hours later, the animals were bundled in a jacket of netting. Their paws were bound and the entire unit was placed in a refrigerator at 8° C. for two hours. The rats were freed and killed by ether.
Their stomachs were removed, opened along the greater curvature and examined with a binocular magnifier. The seriousness of the lesions was graded from 1 to 3 for each stomach.
For each lot of rats, the average intensity of the ulcerations was calculated. The degree of ulceration for test animals was compared with the control animals for each lot.

A further data set is described as follows: acute toxicity (LD50). As to conditions: mouse, in vivo; mice, oral. As to the method:
(3) Determination of the Acute Toxicity
The LD50 was evaluated after the administration of the products orally to mice.

The LD50 is the dose expected to kill half of the subjects tested. A low value points to greater toxicity. In the case of `Cc1ccc(C(=O)C=CC(=O)O)cc1` [Example 2, 4-tolyl-4-oxobuten-2-oic acid], the “Anti-secretion activity: Acid Concentration (% variation as compared with the controls)” value in data set [1] is on record as -61%. In addition, the “Anti-ulcer activity: Ulceration (% variation as compared with the controls)” value in the data set with stomach ulcers was -39%. Besides, the LD50 in “acute toxicity (LD50)” stood at 250 mg/kg.
Regarding `O=C(O)/C=C/C(=O)c1ccccc1` [Example 1, (E) 4-phenyl-4-oxobuten-2-oic acid], the “Anti-secretion activity: Acid Concentration (% variation as compared with the controls)” value in data set [1] is recorded as -66%. Besides, in the data set on stomach ulcers, the “Anti-ulcer activity: Ulceration (% variation as compared with the controls)” value was -54%. This molecule also came in with a median lethal dose (LD50) in “acute toxicity (LD50)” of 250 mg/kg.
As to `O=C(O)/C=C\C(=O)c1ccccc1` [Example 3, (Z) 4-phenyl-4-oxobuten-2-oic acid], the “Anti-secretion activity: Acid Concentration (% variation as compared with the controls)” value in data set [1] is on record as -81%. In the data set with stomach ulcers, the “Anti-ulcer activity: Ulceration (% variation as compared with the controls)” value is listed as -93%. For the same molecule, the 50% lethal dose (LD50) in “acute toxicity (LD50)” was found to be 370 mg/kg.
